Test results taken from article PMC11513924, “Addressing the Intracellular Vestibule of the Plasmodial Lactate Transporter PfFNT by p-Substituted Inhibitors Amplifies In Vitro Activity” (Journal of Medicinal Chemistry, 2024).
Like-named read-outs stand apart in the source and are kept apart here.

What was measured:
[1] = test system: Plasmodium falciparum 3D7 parasites; assay: P. falciparum 3D7 culture growth assay in erythrocytes (in vitro activity); type: cell-based; conditions: for activity at 0.05 µM / activity at 0.1 µM / activity at 0.2 µM / EC50: Plasmodium falciparum, 3D7, Erythrocyte, 48 h; for activity at 0.05 µM: 50 nM compound, read-out: % Growth at 50 nM (in vitro, 3D7); for activity at 0.05 µM / activity at 0.1 µM / activity at 0.2 µM: % of untreated control; for activity at 0.1 µM: 100 nM compound, read-out: % Growth at 100 nM (in vitro, 3D7); for activity at 0.2 µM: 200 nM compound, read-out: % Growth at 200 nM (in vitro, 3D7); for EC50: read-out: EC50 (in vitro, 3D7)
Description: The parasitemia was measured using an LSR II FACS (BD Biosciences) as described.[34],[35] Growth was assessed as % of untreated control. EC50 curves were plotted using Graph Pad Prism.
Transport assays in yeast were done in triplicate biological replicates. At least nine technical replicates were measured around the IC50 value, concentrations with no or full inhibition were determined from at least three technical replicates. […] IC50 and EC50 curves were fitted by the Hill equation with variable slope (Graph Pad Prism 10). Error bars denote ± SEM (for n ≥ 3) or ± range (for n = 2). […] Cytotoxicity was determined from biological triplicates; error is shown as SEM.

[2] = biological target: T1, PfFNT (Plasmodium falciparum, UniProt O77389); assay: Fluorescence cross-correlation spectroscopy (FCCS) competition binding to solubilized PfFNT-GFP
T1 construct: expressed in transfected cells; membranes solubilized
T1 sequence (O77389 1-309): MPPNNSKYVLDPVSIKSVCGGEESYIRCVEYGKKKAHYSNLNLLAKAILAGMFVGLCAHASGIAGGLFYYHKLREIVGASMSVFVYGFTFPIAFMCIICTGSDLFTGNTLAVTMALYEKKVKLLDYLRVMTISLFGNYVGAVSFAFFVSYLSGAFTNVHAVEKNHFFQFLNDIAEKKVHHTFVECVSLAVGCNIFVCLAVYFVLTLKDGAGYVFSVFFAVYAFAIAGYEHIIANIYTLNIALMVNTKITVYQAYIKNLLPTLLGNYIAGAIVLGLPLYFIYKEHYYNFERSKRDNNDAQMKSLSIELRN
Description: FCCS measurements were conducted and analyzed as before.[20],[30] Briefly, membranes of stably transfected cells expressing PfFNT with a C-terminal GFP (green) were solubilized. BH267.meta 2 fused with DY647 (red) was used as a tracer to monitor the binding of compounds in a competition assay. Assays were done in […] glass bottom plates (cat. no. PS96B-G175, SWISSCI, Switzerland) using a plate reader (Insight, Evotec Technologies, Germany) fitted with a U-Apo300 40× water immersion lens, NA 1.15 (Olympus, Japan). Excitation was done with an argon-ion laser (488 nm) and a helium–neon laser (633 nm). Fluorescence fluctuations were recorded 10 times for 5 s per sample and fitted using FCS+ plus Analyze (PerkinElmer software). Initially, IC50 values were determined from the concentration of the dual labeled complex titrated against a competitor in a range of 100 pM to 100 μM (Figure S1). Then, Ki values were calculated using the Cheng Prusoff equation[31] based on the previously determined KD value for the BH267.meta-DY647 tracer.[20]

[3] = biological target: T1, PfFNT; assay: Yeast-based PfFNT 14C-lactate transport assay; type: cell-based
Description: Lactate transport functionality of PfFNT was assayed as described before.[4] Briefly, Saccharomyces cerevisiae W303-1A jen1Δady2Δcells[32] (MATa, can1-100, ade2-loc, his3-11-15, leu2-3,-112, trp1-1-1, ura3-1, jen1::kanMX4, ady2::hphMX4) kindly provided by M. Casal expressing PfFNT was grown at 29 °C to an OD600 of 1 (±0.1). Harvested cells were resuspended to an OD600 of 50 (±5) in 50 mM HEPES/Tris, pH 6.8 (±0.1). 10–15 min prior to the assay, 80 μL of yeast suspension were added to 1 μL of DMSO with or without inhibitor in a 1.5 mL reaction tube at 18 °C. Twenty μL of L-lactate solution spiked with [1-^14C]-L-lactate (Hartmann Analytic) was added yielding a 1 mM inward gradient with 0.04 μCi label. Transport was stopped after 30 s by abrupt dilution with 1 mL of ice-cold water, vacuum filtration via GF/C filter membranes (Whatman), and washing with 7 mL of ice-cold water. The radio label was analyzed by liquid scintillation counting in 3 mL of scintillation cocktail (Rotiszint eco plus, Carl Roth) using a Packard TriCarb 2900 TR (PerkinElmer Inc.).
Transport assays in yeast were done in triplicate biological replicates. At least nine technical replicates were measured around the IC50 value, concentrations with no or full inhibition were determined from at least three technical replicates. EC50-values were determined from 2 to 4 biological replicates. IC50 and EC50 curves were fitted by the Hill equation with variable slope (Graph Pad Prism 10). Error bars denote ± SEM (for n ≥ 3) or ± range (for n = 2). For the EC50-value of 7a the error of the fitting of the curve is given. Cytotoxicity was determined from biological triplicates; error is shown as SEM.

[4] = 14C-lactate transport, PfFNT wild type, read-out: IC50 (transport, yeast)

Compound	times lower in vitro activity (vs 7e) ([1]; 3D7)	activity at 0.05 µM [1]	activity at 0.1 µM [1]	activity at 0.2 µM [1]	Ki [2]	IC50 [3, 4]	EC50 ([1]; cultures in erythrocytes)	EC50 [1]	Ki ([2]; competition against BH267.meta-DY647 tracer, Cheng Prusoff, read-out: Ki (FCCS, protein))	IC50 [3]
Nc1ccc(C(=O)/C=C(\O)C(F)(F)C(F)(F)F)cn1 [7b, 1-(6-Aminopyridin-3-yl)-4,4,5,5,5-pentafluoro-3-hydroxypent-2-en-1-one]	at least 3 times	79%	65%	29%	0.031 ± 0.006 µM	0.19 ± 0.02 µM	–	–	–	–
O=C(/C=C(\O)C(F)(F)C(F)(F)F)c1ccc(NCc2ccccc2)nc1 [7a, 1-[6-(Benzylamino)pyridin-3-yl]-4,4,5,5,5-pentafluoro-3-hydroxypent-2-en-1-one]	–	71%	32%	14%	0.032 ± 0.015 µM	0.51 ± 0.15 µM	0.0779 µM	–	–	–
COc1cc(CNc2ccc(C(=O)/C=C(\O)C(F)(F)C(F)(F)F)cn2)cc(OC)c1OC [7q, 4,4,5,5,5-Pentafluoro-3-hydroxy-1-(6-((3,4,5-trimethoxybenzyl)amino)pyridin-3-yl)pent-2-en-1-one]	–	107%	105%	117%	0.049 ± 0.012 µM	2.11 ± 0.32 µM	–	–	–	–
O=C(/C=C(\O)C(F)(F)C(F)(F)F)c1ccsc1 [5d, 4,4,5,5,5-Pentafluoro-3-hydroxy-1-(thiophen-3-yl)pent-2-en-1-one]	–	–	–	–	0.085 ± 0.004 µM	0.15 ± 0.01 µM	1.87 ± 0.15 µM	–	–	–
CCC(=O)Nc1ccc(C(=O)/C=C(\O)C(F)(F)C(F)(F)F)cn1 [8b, N-(5-(4,4,5,5,5-Pentafluoro-3-hydroxypent-2-enoyl)pyridin-2-yl)propionamide]	–	17%	10%	4%	0.027 ± 0.004 µM	0.25 ± 0.02 µM	–	–	–	–
O=C(/C=C(\O)C(F)(F)C(F)(F)F)c1ccc(NCC(F)(F)F)nc1 [7i, 4,4,5,5,5-Pentafluoro-3-hydroxy-1-(6-((2,2,2-trifluoroethyl)amino)pyridin-3-yl)pent-2-en-1-one]	–	71%	38%	9%	0.024 ± 0.006 µM	0.21 ± 0.02 µM	–	–	–	–
O=C(/C=C(\O)C(F)(F)C(F)(F)F)c1ccc(NC2CCC2)nc1 [7l, 1-(6-(Cyclobutylamino)pyridin-3-yl)-4,4,5,5,5-pentafluoro-3-hydroxypent-2-en-1-one]	–	59%	16%	7%	0.023 ± 0.007 µM	0.26 ± 0.03 µM	–	–	–	–
COCCCNc1ccc(C(=O)/C=C(\O)C(F)(F)C(F)(F)F)cn1 [7h, 4,4,5,5,5-Pentafluoro-3-hydroxy-1-(6-((3-methoxypropyl)amino)pyridin-3-yl)pent-2-en-1-one]	–	65%	–	17%	0.055 ± 0.006 µM	0.16 ± 0.01 µM	–	–	–	–
CCCN(C)c1ccc(C(=O)/C=C(\O)C(F)(F)C(F)(F)F)cn1 [7r, 4,4,5,5,5-Pentafluoro-3-hydroxy-1-(6-(methyl(propyl)amino)pyridin-3-yl)pent-2-en-1-one]	–	114%	–	96%	0.098 ± 0.011 µM	0.35 ± 0.08 µM	–	–	–	–
O=C(/C=C(\O)C(F)(F)C(F)(F)F)c1cccs1 [5c, 4,4,5,5,5-Pentafluoro-3-hydroxy-1-(thiophen-2-yl)pent-2-en-1-one]	–	–	–	–	0.045 ± 0.025 µM	0.11 ± 0.01 µM	1.92 ± 0.17 µM	–	–	–
O=C(/C=C(\O)C(F)(F)C(F)(F)F)c1ccc(N2CCNCC2)nc1 [7t, 4,4,5,5,5-Pentafluoro-3-hydroxy-1-[6-(piperazin-1-yl)pyridin-3-yl]pent-2-en-1-one]	–	–	–	–	0.858 ± 0.129 µM	17.3 ± 6.5 µM	–	–	–	–
CC(C)Nc1ccc(C(=O)/C=C(\O)C(F)(F)C(F)(F)F)cn1 [7n, 4,4,5,5,5-Pentafluoro-3-hydroxy-1-(6-(isopropylamino)pyridin-3-yl)pent-2-en-1-one]	–	53%	31%	15%	0.067 ± 0.011 µM	0.15 ± 0.01 µM	–	–	–	–
O=C(/C=C(\O)C(F)(F)C(F)(F)F)c1ccco1 [5a, 4,4,5,5,5-Pentafluoro-1-(furan-2-yl)-3-hydroxypent-2-en-1-one]	–	–	–	–	0.037 ± 0.005 µM	0.17 ± 0.06 µM	1.98 ± 0.04 µM	–	–	–
COC(F)(F)C(F)(F)/C(O)=C/C(=O)c1cccnc1 [3c, 4,4,5,5-Tetrafluoro-3-hydroxy-5-methoxy-1-(pyridin-3-yl)pent-2-en-1-one]	–	–	–	–	0.093 ± 0.002 µM	0.31 ± 0.01 µM	3.39 ± 0.01 µM	–	–	–
O=C(/C=C(\O)C(F)(F)c1ccccc1)c1cccnc1 [3a, 4,4-Difluoro-3-hydroxy-4-phenyl-1-(pyridin-3-yl)but-2-en-1-one]	–	–	–	–	5.84 ± 0.96 µM	1.14 ± 0.2 µM	36.6 ± 11.1 µM	–	–	–
CNc1ccc(C(=O)/C=C(\O)C(F)(F)C(F)(F)F)cn1 [7c, 4,4,5,5,5-Pentafluoro-3-hydroxy-1-(6-(methylamino)pyridin-3-yl)pent-2-en-1-one]	–	103%	97%	85%	0.036 ± 0.012 µM	0.13 ± 0.02 µM	–	–	–	–
CCCCCNc1ccc(C(=O)/C=C(\O)C(F)(F)C(F)(F)F)cn1 [7g, 4,4,5,5,5-Pentafluoro-3-hydroxy-1-(6-(pentylamino)pyridin-3-yl)pent-2-en-1-one]	–	37%	12%	6%	0.013 ± 0.001 µM	0.39 ± 0.03 µM	–	–	–	–
FC(F)(F)C(F)(F)c1nc(-c2cccnc2)n[nH]1 [4a, 3-[5-(1,1,2,2,2-Pentafluoroethyl)-1H-1,2,4-triazol-3-yl]pyridine]	–	–	–	–	1.61 ± 0.298 µM	8.44 ± 1.85 µM	–	–	–	–
FC(F)(F)C(F)(F)c1cc(-c2cccnc2)n[nH]1 [4b, 3-[5-(1,1,2,2,2-Pentafluoroethyl)-1H-pyrazol-3-yl]pyridine]	–	–	–	–	> 80 µM	~1000 µM	–	–	–	–
O=C(/C=C(\O)C(F)(F)C(F)(F)C(F)(F)F)c1cccnc1 [3b, 4,4,5,5,6,6,6-Heptafluoro-3-hydroxy-1-(pyridin-3-yl)hex-2-en-1-on]	–	–	–	–	–	–	–	1.17 ± 0.03 µM	0.03 ± 0.003 µM	0.34 ± 0.05 µM
O=C(/C=C(\O)C(F)(F)C(F)(F)F)c1ccc(NC(=O)c2ccccc2)nc1 [8c, N-(5-(4,4,5,5,5-Pentafluoro-3-hydroxypent-2-enoyl)pyridin-2-yl)benzamide]	–	78%	51%	13%	0.016 ± 0.002 µM	0.37 ± 0.02 µM	–	–	–	–
CC(C)CNc1ccc(C(=O)/C=C(\O)C(F)(F)C(F)(F)F)cn1 [7j, 4,4,5,5,5-Pentafluoro-3-hydroxy-1-(6-(isobutylamino)pyridin-3-yl)pent-2-en-1-one]	–	61%	17%	11%	0.03 ± 0.003 µM	0.28 ± 0.03 µM	–	–	–	–
